Measured values from patent US20210369684A1 (MOUNT TAM THERAPEUTICS, INC., priority 2018, published 2021).
Several values for one entry are separate records, joined by “and”; a condition that tells them apart may be missing. Equal values may be shown once.

Key:
[1] = Brain concentrations after IP administration to mice (LC-MS/MS); assay type: in vivo, mouse; conditions: for Formula II Concentrations in Mouse Brain / Formula II Concentrations in Mouse Brain, Mean: Day 3, 24.0 h
Protocol: To carry out these assays using brain homogenates, 20 uL of samples and matrix calibration standards into wells of a 96-well plate, and 10 uL of blank matrix allocated for matrix blanks and control blanks. 160 uL internal standard was then added to all samples except matrix blanks, and 160 uL ACN added to matrix blanks. Samples were then vortexed for 5 minutes and centrifuge for 5 minutes at >3500 rpm. 150 uL of the supernatant was then transferred to a new 96-well plate, and the plates blown down to dryness at 35° C., reconstituted with 90 uL of 70:30 water:acetonitrile (ACN) solution, covered and vortexed prior to analysis. LC and MS conditions were the same as described above for the whole blood analysis. […] The compound of Formula II was administered to mice at 2 mg/kg or 10 mg/kg for three days and the concentration of the compound in brain determined.

6-OHDA injected mice [2] = experiment: Anti-TH immunohistochemistry, 6-OHDA-induced striatal denervation; assay type: in vivo, mouse
Protocol: Immunohistochemistry analysis using anti-tyrosine hydroxylase (TH) antibody was performed in mouse midbrain sections to quantify 6-OHDA-induced striatal denervation in mice injected with 6-OHDA and non-injected (control) sides of the brain. […] In contrast, both the 6-OHDA/rapamycin-treated and the 6-OHDA/Formula II-treated sides of the brain show increased staining with the anti-TH antibody, as indicated by the dark shading in those figures. FIG. 3B presents the mean and standard error of the mean (SEM) of the integrated density of anti-TH antibody staining in the striatum, as well as statistical analysis of the results for the groups of mice.

6-OHDA injected mice [3] = experiment: Anti-TH immunohistochemistry, 6-OHDA-induced neuronal loss (TH-positive somas in SN); assay type: in vivo, mouse
Protocol: Immunohistochemistry analysis using anti-tyrosine hydroxylase (TH) antibody was also performed to quantify 6-OHDA-induced neuronal loss in mice injected with 6-OHDA and non-injected (control) sides of the brain. […] FIG. 4B presents the mean and standard error of the mean (SEM) as well as statistical analysis of the results.

TORC1 = target: T1, TORC1 (Homo sapiens, UniProt P42345+P62942); experiment: IC50 in PC3 cells, TORC1; assay type: cell-based
T1 construct: endogenous in cells; host or cells: PC3 cells

[4] = Whole blood concentrations after IP administration to mice (LC-MS/MS); assay type: in vivo, mouse; conditions: 2 mg/kg IP QD x 3 days; for Formula II Concentrations in Mouse Whole Blood: individual animals 7, 8, 9
Protocol: Shown below are whole blood concentrations following administration of the compound of Formula II to mice. The compound of Formula II was administered to mice at 2 mg/kg or 10 mg/kg for three days and the concentration of the compound in whole blood determined. These determinations were made using protein precipitation, liquid chromatography (LC), and mass spectrometry (MS/MS). Ten μl aliquots of whole blood and matrix calibration standards were distributed in a 96-well plate; 10 μl aliquots of blank matrix for matrix blanks and control blanks were included as controls. Ten μl of water was added to each sample followed by vortexing. One hundred sixty […] of internal standard was added to each sample except the matrix blanks; 160 μl 70:30 water:acetonitrile (ACN) was added to matrix blanks. This was followed by a […]. One hundred fifty μl of the resultant supernatant was then transferred to a new 96-well plate and the samples blown to dryness at 35° C. The resultant product was then reconstituted with 90 μl ACN.

Formula II Concentrations in Mouse Brain ([1]; Group 1, 2 mg/kg IP QD x 3 days, individual animals 7, 8, 9): 33.7 ng/g and 27.6 ng/g and 31.4 ng/g
Formula II Concentrations in Mouse Brain, Mean ([1]; Group 1, 2 mg/kg IP QD x 3 days): 30.9 ng/g
Formula II Concentrations in Mouse Brain ([1]; Group 2, 10 mg/kg IP QD x 3 days, individual animals 10, 11, 12): 121 ng/g and 136 ng/g and 224 ng/g
Formula II Concentrations in Mouse Brain, Mean ([1]; Group 2, 10 mg/kg IP QD x 3 days): 160 ng/g
IC50 (TORC1): 0.099 nM
TORC1/TORC2 Selectivity (TORC1; from IC50 values): 50x
Formula II Concentrations in Mouse Whole Blood ([4]; Day 1, 1.00 h): 452 ng/mL and 380 ng/mL and 317 ng/mL
Formula II Concentrations in Mouse Whole Blood, Mean ([4]; Day 1, 1.00 h): 383 ng/mL
Formula II Concentrations in Mouse Whole Blood ([4]; Day 1, 2.00 h): 415 ng/mL (2×) and 378 ng/mL
Formula II Concentrations in Mouse Whole Blood, Mean ([4]; Day 1, 2.00 h): 403 ng/mL
Formula II Concentrations in Mouse Whole Blood ([4]; Day 1, 6.00 h): 382 ng/mL and 520 ng/mL and 490 ng/mL
Formula II Concentrations in Mouse Whole Blood, Mean ([4]; Day 1, 6.00 h): 464 ng/mL
Formula II Concentrations in Mouse Whole Blood ([4]; Day 1, 24.0 h): 12.2 ng/mL and 18.4 ng/mL and 14.7 ng/mL
Formula II Concentrations in Mouse Whole Blood, Mean ([4]; Day 1, 24.0 h): 15.1 ng/mL
Formula II Concentrations in Mouse Whole Blood ([4]; Day 2, 1.00 h): 481 ng/mL and 208 ng/mL and 524 ng/mL
Formula II Concentrations in Mouse Whole Blood, Mean ([4]; Day 2, 1.00 h): 404 ng/mL
Formula II Concentrations in Mouse Whole Blood ([4]; Day 2, 2.00 h): 501 ng/mL and 233 ng/mL and 570 ng/mL
Formula II Concentrations in Mouse Whole Blood, Mean ([4]; Day 2, 2.00 h): 435 ng/mL
Formula II Concentrations in Mouse Whole Blood ([4]; Day 2, 6.00 h): 553 ng/mL and 632 ng/mL and 552 ng/mL
Formula II Concentrations in Mouse Whole Blood, Mean ([4]; Day 2, 6.00 h): 579 ng/mL
Formula II Concentrations in Mouse Whole Blood ([4]; Day 2, 24.0 h): 15.3 ng/mL and 80.6 ng/mL and 35.2 ng/mL
Formula II Concentrations in Mouse Whole Blood, Mean ([4]; Day 2, 24.0 h): 43.7 ng/mL
Formula II Concentrations in Mouse Whole Blood ([4]; Day 3, 1.00 h): 628 ng/mL and 726 ng/mL and 600 ng/mL
Formula II Concentrations in Mouse Whole Blood, Mean ([4]; Day 3, 1.00 h): 651 ng/mL
Formula II Concentrations in Mouse Whole Blood ([4]; Day 3, 2.00 h): 478 ng/mL and 489 ng/mL and 535 ng/mL
Compound: CO[C@H]1C[C@@H]2CC[C@@H](C)[C@@](O)(C2)C(=O)C(=O)N2CCCC[C@H]2C(=O)O[C@H]([C@H](C)C[C@H]2C[C@H]3C[C@@H]2C[C@@H]3O)CC(=O)[C@H](C)/C=C(\C)[C@@H](O)[C@@H](OC)C(=O)[C@H](C)C[C@H](C)/C=C/C=C/C=C/1C [Formula II, C37-[(1R,2S,4R,5S)-5-hyhroxybicyclo[2.2.1]heptane] rapamycin]
concentrations in brain over time (in words) ([1]; 2 mg/kg or 10 mg/kg IP QD for three days, mice): sufficient concentrations in brain overtime
6-OHDA-induced striatal denervation (anti-TH staining) compared with rapamycin (6-OHDA injected mice [2]; 6-OHDA injected mice, FIG. 3A): decreased 6-OHDA-induced denervation as compared to rapamycin
6-OHDA-induced striatal denervation (anti-TH staining) compared with vehicle control (6-OHDA injected mice [2]; 6-OHDA injected mice, FIG. 3A): decreased 6-OHDA-induced denervation as compared to vehicle control
integrated density of anti-TH staining in striatum, p versus vehicle control (6-OHDA injected mice [2]; one-way ANOVA, FIG. 3B): < 0.001
6-OHDA-induced neuronal loss (TH-positive somas, SN) compared with vehicle control (6-OHDA injected mice [3]; 6-OHDA injected mice, FIG. 4A): decreased 6-OHDA-induced neuronal loss as compared to vehicle control
TH+ neuronal loss, p versus vehicle control (6-OHDA injected mice [3]; one-way ANOVA, FIG. 4B): < 0.01
